Measurements reported in patent US11040959B2, “Diprovocims: a new and potent class of TLR agonists” (The Scripps Research Institute, priority 2016, dated 2021).
Read-outs that look alike come from different tables or passages of the source.

Assays:
[1] = system: differentiated human THP-1 cells; assay: stimulated release of TNF-α from differentiated human THP-1 cells (ELISA, dose-response); assay type: cell-based
Procedure, shortened: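 Human THP-1 cells were PMA-differentiated toward macrophages, and stimulated TNF-α release was measured by ELISA. EC50 values were taken from dose-response curves.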

[2] = system: mouse macrophages; assay: stimulated release of TNF-α from mouse macrophages; assay type: cell-based
Procedure, shortened: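 EC50 derived from dose-response curves for stimulated TNF-α release from mouse macrophages.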

[3] = Homo sapiens, THP-1, Table 3, TNF-α release from human THP-1 cells, read-out: EC50 (nM) (THP-1)
[4] = Macrophage, Table 3, TNF-α release from mouse macrophages, read-out: EC50 (nM) (mouse)
[5] = Homo sapiens, THP-1, table of 125-132 (one lipid side chain, R and S), human THP-1 cells, read-out: EC50 (nM) (THP-1)
[6] = Macrophage, table of 125-132 (one lipid side chain, R and S), mouse macrophages, read-out: EC50 (nM) (mouse)
[7] = Homo sapiens, THP-1, Scheme 1, footnote a, read-out: EC50 TNF-α release from human THP-1 cells
[8] = Mus musculus, Macrophage, Scheme 1, footnote b, read-out: EC50 TNF-α release from mouse macrophages
[9] = Homo sapiens, THP-1, table of 140-146 (four lipid side chains), human THP-1 cells, read-out: EC50 (nM) (THP-1)
[10] = Macrophage, table of 140-146 (four lipid side chains), mouse macrophages, read-out: EC50 (nM) (mouse)

`O=C(N[C@H]1C[C@@H]1c1ccccc1)[C@@H]1CN(C(=O)c2cc(O)c(C(=O)N3C[C@@H](C(=O)N[C@H]4C[C@@H]4c4ccccc4)[C@H](C(=O)N[C@H]4C[C@@H]4c4ccccc4)C3)cc2O)C[C@H]1C(=O)N[C@H]1C[C@@H]1c1ccccc1` [Compound 59, (3S,3′S,4S,4′S)-1,1′-(2,5-Dihydroxy-terephthaloyl)bis(N^3,N^4-bis((1S,2R)-2-phenylcyclo-propyl)-pyrrolidine-3,4-dicarboxamide)] was tested, and the EC50 [1, 3] was 20 nM and the EC50 [2, 4] was over 5000 nM.

For `CCCCCCCCCCCCNC(=O)[C@@H]1CCN(C(=O)c2ccc(C(=O)N3C[C@@H](C(=O)N[C@H]4C[C@@H]4c4ccccc4)[C@H](C(=O)N[C@H]4C[C@@H]4c4ccccc4)C3)cc2)C1` [Compound 127, (3S,4S)-1-(4-((R)-3-(Dodecylcarbamoyl)-pyrrolidine-1-carbonyl)benzoyl)—N^3,N^4-bis((1S,2R)-2-phenylcyclopropyl)pyrrolidine-3,4-dicarboxamide], the EC50 [1, 5] was 9 nM and the EC50 [2, 6] was 700 nM.

For `O=C(N[C@H]1C[C@@H]1c1ccccc1)[C@@H]1CN(C(=O)c2cnc(C(=O)N3C[C@@H](C(=O)N[C@H]4C[C@@H]4c4ccccc4)[C@H](C(=O)N[C@H]4C[C@@H]4c4ccccc4)C3)cn2)C[C@H]1C(=O)N[C@H]1C[C@@H]1c1ccccc1` [Compound 50, (3S,3′S,4S,4′S)-1,1′-(Pyrazine-2,5-dicarbonyl)-bis(N^3,N^4-bis((1S,2R)-2-phenylcyclopropyl)-pyrrolidine-3,4-dicarboxamide)], the EC50 [1, 3] was 130 nM and the EC50 [2, 4] was over 5000 nM.

Work on `O=C(COc1cc(C(=O)N2C[C@@H](C(=O)N[C@H]3C[C@@H]3c3ccccc3)[C@H](C(=O)N[C@H]3C[C@@H]3c3ccccc3)C2)ccc1C(=O)N1C[C@@H](C(=O)N[C@H]2C[C@@H]2c2ccccc2)[C@H](C(=O)N[C@H]2C[C@@H]2c2ccccc2)C1)NCC(=O)N[C@@H](CO)C(=O)O` [Compound 151, (2-(2,5-Bis((3S,4S)-3,4-bis(((1S,2R)-2-phenylcyclopropyl)carbamoyl)pyrrolidine-1-carbonyl)phenoxy)acetyl)glycyl-L-serine] yielded an EC50 ([1]; table of functionalized derivatives 147-151, human THP-1 cells, read-out: EC50 (nM) (THP-1)) of 0.24 nM and an EC50 ([2]; Macrophage, table of functionalized derivatives 147-151, mouse macrophages, read-out: EC50 (nM) (mouse)) of 270 nM.

`O=C(N[C@H]1C[C@@H]1c1ccccc1)[C@@H]1CN(C(=O)c2cc(Br)c(C(=O)N3C[C@@H](C(=O)N[C@H]4C[C@@H]4c4ccccc4)[C@H](C(=O)N[C@H]4C[C@@H]4c4ccccc4)C3)cc2Br)C[C@H]1C(=O)N[C@H]1C[C@@H]1c1ccccc1` [Compound 62, (3S,3′S,4S,4′S)-1,1′-(2,5-Dibromoterephthaloyl)-bis(N^3,N^4-bis((1S,2R)-2-phenylcyclopropyl)pyrrolidine-3,4-dicarboxamide)] gave an EC50 [1, 3] of 860 nM and an EC50 [2, 4] of over 5000 nM.

Work on `O=C(N[C@H]1C[C@@H]1c1ccccc1)[C@H]1CN(C(=O)c2ccc(C(=O)N3C[C@H](C(=O)N[C@@H]4C[C@H]4c4ccccc4)[C@@H](C(=O)N[C@@H]4C[C@H]4c4ccccc4)C3)cc2)C[C@@H]1C(=O)N[C@H]1C[C@@H]1c1ccccc1` [Compound 26, (3R,4R)-1-(4-((3R,4R)-3,4-Bis(((1R,2S)-2-phenylcyclopropyl)carbamoyl)-pyrrolidine-1-carbonyl)-benzoyl)—N^3,N^4-bis((1S,2R)-2-phenylcyclopropyl)-pyrrolidine-3,4-dicarboxamide] yielded an EC50 [1, 7] of at least 5000 nM and an EC50 [2, 8] of over 5000 nM.

`CCCCCCCCCCNC(=O)[C@@H]1CN(C(=O)c2ccc(C(=O)N3C[C@@H](C(=O)NCCCCCCCCCC)[C@H](C(=O)NCCCCCCCCCC)C3)cc2)C[C@H]1C(=O)NCCCCCCCCCC` [Compound 143, (3S,3′S,4S,4′S)-1,1′-Terephthaloylbis(N^3,N^4-didecylpyrrolidine-3,4-dicarboxamide)] gave an EC50 [1, 9] of over 5000 nM and an EC50 [2, 10] of over 5000 nM.

For `O=C(N[C@H]1C[C@@H]1c1ccccc1)[C@@H]1CN(C(=O)c2cccc(C(=O)N3C[C@@H](C(=O)N[C@H]4C[C@@H]4c4ccccc4)[C@H](C(=O)N[C@H]4C[C@@H]4c4ccccc4)C3)c2)C[C@H]1C(=O)N[C@H]1C[C@@H]1c1ccccc1` [Compound 38, (3S,3′S,4S,4′S)-1,1′-Isophthaloyl-bis-(N^3,N^4-bis((1S,2R)-2-phenylcyclopropyl)-pyrrolidine-3,4-dicarboxamide)], the EC50 ([1]; Homo sapiens, THP-1, Table 1, TNF-α release from human THP-1 cells, read-out: EC50 (nM) (THP-1)) was over 5000 nM and the EC50 ([2]; Macrophage, Table 1, TNF-α release from mouse macrophages, read-out: EC50 (nM) (mouse)) was over 5000 nM.

With `CCCCCCCCCCCCCCCCNC(=O)C1CCN(C(=O)c2ccc(C(=O)N3C[C@@H](C(=O)N[C@H]4C[C@@H]4c4ccccc4)[C@H](C(=O)N[C@H]4C[C@@H]4c4ccccc4)C3)cc2)C1` (stereo in doubt) [Compound 129, (3S,4S)-1-(4-((S)-3-(Hexadecylcarbamoyl)-pyrrolidine-1-carbonyl)benzoyl)—N^3,N^4-bis((1S,2R)-2-phenylcyclopropyl)pyrrolidine-3,4-dicarboxamide] the EC50 ([1]; table of 125-132 (one lipid side chain, R and S), human THP-1 cells, read-out: EC50 (nM) (THP-1)) was 5 nM and the EC50 ([2]; table of 125-132 (one lipid side chain, R and S), mouse macrophages, read-out: EC50 (nM) (mouse)) was over 5000 nM.

For `O=C(NCCc1ccc(F)cc1)[C@@H]1CN(C(=O)c2ccc(-c3ccc(C(=O)N4C[C@@H](C(=O)NCCc5ccc(F)cc5)[C@H](C(=O)NCCc5ccc(F)cc5)C4)cc3)cc2)C[C@H]1C(=O)NCCc1ccc(F)cc1` [Compound 104, (3S,3′S,4S,4′S)-1,1′-([1,1′-Biphenyl]-4,4′-dicarbonyl)bis(N^3,N^4-bis(4-fluoro-phenethyl)-pyrrolidine-3,4-dicarboxamide)], the EC50 ([1]; Homo sapiens, THP-1, Table 7, TNF-α release from human THP-1 cells, read-out: EC50 (nM) (THP-1)) was over 5000 nM and the EC50 ([2]; Macrophage, Table 7, TNF-α release from mouse macrophages, read-out: EC50 (nM) (mouse)) was over 5000 nM.

`O=C(NCCc1ccc(F)cc1)[C@@H]1CN(C(=O)c2ccc(C(=O)N3C[C@@H](C(=O)N[C@H]4C[C@@H]4c4ccccc4)[C@H](C(=O)N[C@H]4C[C@@H]4c4ccccc4)C3)cc2)C[C@H]1C(=O)NCCc1ccc(F)cc1` [Compound 114, (3S,4S)-1-(4-((3S,4S)-3,4-Bis(((1S,2R)-2-phenylcyclopropyl)carbamoyl)-pyrrolidine-1-carbonyl)benzoyl)—N^3,N^4-bis(4-fluorophenethyl)-pyrrolidine-3,4-dicarboxamide] was tested, and the “activity in stimulating TNF-α release from human THP-1 cells (in words)” value ([1]; tested up to 5 μM where stated) was “active” and the “activity in stimulating TNF-α release from mouse macrophages (in words)” value ([2]; tested up to 5 μM where stated) was “active”.

In the case of `CCCCCCCCNC(=O)[C@@H]1CN(C(=O)c2ccc(C(=O)N3C[C@@H](C(=O)NCCCCCCCC)[C@H](C(=O)NCCCCCCCC)C3)cc2)C[C@H]1C(=O)NCCCCCCCC` [Compound 144, (3S,3′S,4S,4′S)-1,1′-Terephthaloylbis(N^3,N^4-dioctylpyrrolidine-3,4-dicarboxamide)], the EC50 [1, 9] is reported as over 5000 nM and the EC50 [2, 10] is reported as over 5000 nM.

Work on `C#CCOc1cc(C(=O)N2C[C@@H](C(=O)N[C@H]3C[C@@H]3c3ccccc3)[C@H](C(=O)N[C@H]3C[C@@H]3c3ccccc3)C2)ccc1C(=O)N1C[C@@H](C(=O)N[C@H]2C[C@@H]2c2ccccc2)[C@H](C(=O)N[C@H]2C[C@@H]2c2ccccc2)C1` [Compound 56, (3S,3′S,4S,4′S)-1,1′-(2-(Prop-2-yn-1-yloxy)-terephthaloyl)bis(N^3,N^4-bis((1S,2R)-2-phenylcyclo-propyl)pyrrolidine-3,4-dicarboxamide)] yielded an EC50 [1, 3] of 15 nM and an EC50 [2, 4] of 750 nM.

`O=C(N[C@@H]1C[C@H]1c1ccccc1)[C@H]1CN(C(=O)c2ccc(C(=O)N3C[C@@H](C(=O)N[C@H]4C[C@@H]4c4ccccc4)[C@H](C(=O)N[C@H]4C[C@@H]4c4ccccc4)C3)cc2)C[C@@H]1C(=O)N[C@@H]1C[C@H]1c1ccccc1` [Compound 27, (3S,4S)-1-(4-((3R,4R)-3,4-Bis(((1R,2S)-2-phenyl-cyclopropyl)carbamoyl)-pyrrolidine-1-carbonyl)-benzoyl)—N^3,N^4-bis((1S,2R)-2-phenylcyclopropyl)-pyrrolidine-3,4-dicarboxamide] showed an EC50 [1, 7] of 20 nM and an EC50 [2, 8] of at least 5000 nM.

`O=C(N[C@H]1C[C@@H]1c1ccccc1)[C@@H]1CN(C(=O)Cc2ccc(CC(=O)N3C[C@@H](C(=O)N[C@H]4C[C@@H]4c4ccccc4)[C@H](C(=O)N[C@H]4C[C@@H]4c4ccccc4)C3)cc2)C[C@H]1C(=O)N[C@H]1C[C@@H]1c1ccccc1` [Compound 48, (3S,3′S,4S,4′S)-1,1′-((1,4-Phenylene)diacetyl)-bis(N^3,N^4-bis((1S,2R)-2-phenylcyclopropyl)-pyrrolidine-3,4-dicarboxamide)] gave an EC50 ([1]; Homo sapiens, THP-1, Table 2, TNF-α release from human THP-1 cells, read-out: EC50 (nM) (THP-1)) of over 5000 nM and an EC50 ([2]; Macrophage, Table 2, TNF-α release from mouse macrophages, read-out: EC50 (nM) (mouse)) of over 5000 nM.

For `CCCCCCCCCCNC(=O)[C@H]1CCN(C(=O)c2ccc(C(=O)N3C[C@@H](C(=O)N[C@H]4C[C@@H]4c4ccccc4)[C@H](C(=O)N[C@H]4C[C@@H]4c4ccccc4)C3)cc2)C1` [Compound 132, (3S,4S)-1-(4-((S)-3-(Decylcarbamoyl)pyrrolidine-1-carbonyl)benzoyl)—N^3,N^4-bis((1S,2R)-2-phenyl-cyclopropyl)pyrrolidine-3,4-dicarboxamide], the EC50 [1, 5] was 33 nM and the EC50 [2, 6] was 1800 nM.
